Several values for one entry are separate records, joined by “and”; a condition that tells them apart may be missing. Identical values can stand only once. Like-named read-outs stand apart in the source and are kept apart here.
Columns and labels:
[1] = test system: S. cerevisiae wild type diploid MVY#2008; conditions: for Specific Death Rates in 2% Glucose (d): WT
Method: (§1) The method for examining ethanol tolerance using a plating technique was adapted from Chi et al. (Chi et al., “Role of Phosphatidylinositol (PI) in Ethanol Production and Ethanol Tolerance By a High Ethanol Producing Yeast,” J Industrial Microbiology Biotechnology 22:58-63 (1999), which is hereby incorporated by reference in its entirety). Inocula of wild type and opi1 yeast strains were prepared as previously described. Cells were centrifuged at 4,500 rpm for 5 min at 4° C. (Sorvall Legend R T, Kendro Laboratory Products, Asheville, N.C.), and the supernatant was removed. Cells were washed twice with −I media, centrifuged at 4,500 rpm for 5 min, and the resulting pellet was stored at 4° C.
(§2) The cell pellets were re-suspended in inositol-free media and the OD was measured. Cells were inoculated into a 500-mL polycarbonate Erlenmeyer flask containing 110-mL of synthetic media either containing (+I) or lacking inositol (−I) at a final OD of 0.1. The cell cultures were placed in an incubator-shaker at 30° C. and 250 rpm until the OD reached 0.5.
(§3) Two volumes of cell suspension containing 1×10^8 cells—previously determined by cell counting with a hemacytometer (Bright-Line Hemacytometer, Reichert Scientific Instruments, Buffalo, N.Y.)—were removed from the flasks and placed in separate sterile 50-mL centrifuge tubes. Cells were centrifuged at 4,500 rpm for 5 min at 4° C. and the supernatant was removed. Cells were washed twice with either −I or +I media as previously described, and the resulting supernatants were discarded. Ten mL of ethanol (10, 15 or 18% (v/v)) was added to one of the 50-mL centrifuge tubes containing a washed cell pellet and this represented the “shocked culture.” As a control, 10-mL of sterile water was added to the second 50-mL tube containing a washed cell pellet. Two 25-μl aliquots of the control culture were removed and plated on YPD plates, representing time zero of the experiment. Cell suspensions were transferred from 50-mL centrifuge tubes to 25-mL sterile glass tubes. The glass tubes were placed in an incubator-shaker at 30° C. and 250 rpm.
(§4) Samples of both the shocked and control cultures were taken every hour for 4 hr. Shocked cells were diluted in ethanol (10, 15, or 18%, consistent with the concentration of the shocked culture) at dilution factor of 1:1000. Control cells were diluted in sterile water at the same dilution factor. Duplicate 25-μl aliquots were plated on YPD plates for each sample of either shocked or control cell cultures over the 4 hr time course. All plates were placed in a 30° C. incubator. Colonies were counted on all plates after 48 and 72 hr. Duplicate plate counts were averaged. Ethanol tolerance of each strain, in terms of cell viability, in either +I or −I media over a range of ethanol concentrations, was expressed as a ratio of the number of colonies counted in the shocked culture at 72 hr to the number of colonies counted in the control culture at 72 hr. Cell viability in the control culture at time-zero of the experiment was assumed to be 100%.
(§5) Ethanol tolerance of each strain was calculated, in terms of cell viability (CV), using the number of colony forming units (CFUs) in the shocked and control cultures after 72 hr of incubation using the following equation:
(§6) Cell viability in the control culture at time-zero of the experiment was assumed to be 100%. All ethanol concentrations are volume-volume percentages (v/v), while all glucose concentrations are in weight-volume percentages (w/v).
(§7) To model the data presented in FIGS. 1 and 2 and to estimate specific death rates a simple first-order kinetic model was fitted to the data using the nonlinear parameter estimation tool in KaleidaGraph (Synergy Software, Reading, Pa.):
(§8) d=specific death rate, (hr^−1)

[2] = test system: S. cerevisiae mutant derivative MVY#2015 (opi1)
Method: as §1, §2, §3, §4, §5, §6, §7, §8

[3] = test system: S. cerevisiae mutant derivative MVY#2013 (opi1); conditions: for increase in μ value for opi1 over wild type: 5% ethanol; for Specific Growth Rates in 2% Glucose (μ) / Specific Growth Rates in 12% Glucose (μ): 5% Ethanol
Method: (§9) The method for examining ethanol tolerance by profiling yeast growth was adapted from You et al. (You et al., “Ethanol Tolerance in the Yeast Saccharomyces cerevisiae is Dependent on Cellular Oleic Acid Content,” Applied Environ Microbiology 69:1499-1503 (2003), which is hereby incorporated by reference in its entirety). Inocula of wildtype and opi1 yeast strains were prepared as previously described (see Plating Assays) except a Marathon 21K/BR bench top centrifuge (Fisher Scientific, Inc., Hampton, N.H.) was used. The cell pellet was suspended in —I media and the OD was measured by pipetting […] of the cell suspension into a clean well of a 96 well plate and reading OD in a plate reader (Synergy HT Multidetection Microplate Reader, Bio-Tek Instruments, Inc., Winooski, Vt.).
(§10) Cells were inoculated into 125-mL polycarbonate Erlenmeyer flasks with 50-mL of +I or −I containing either 2% or 12% glucose and 0 or 5% ethanol, at a final OD of 0.05. Each media type was performed in triplicate for both yeast strains. Flasks were placed in an incubator-shaker at 30° C. and 250 rpm (Gyratory Waterbath Shaker, New Brunswick Scientific, Edison, N.J.). The OD of each culture was measured over a period of at least 36 hr or until the cell density had stabilized for a period of no less than 12 hr. Triplicate OD measurements were performed for each sample and measurements were averaged.
(§11) Specific growth rate, or the growth rate over time per unit of biomass, was calculated in order to provide a quantitative assessment of the impact of experimental conditions on growth rate. Specific growth rates were estimated for both yeast strains for all of the conditions mentioned using the following first order kinetic equation:
(§12) μ=specific growth rate, (hr^−1)
(§13) This equation was fit to the data presented in FIGS. 3 through 6 using the nonlinear parameter estimation tool in KaleidaGraph.

[4] = test system: S. cerevisiae wild type haploid MVY#19; conditions: WT, 5% Ethanol
Method: as §9, §10, §11, §12, §13

CCO [Ethanol, ethanol]
d of wild type cells relative to opi1 cells ([1]; 15% ethanol after growth in +I media): over 3.5 times
d of wild type cells relative to opi1 cells ([1]; 15% ethanol after growth in −I media): nearly four times
Specific Death Rates in 2% Glucose (d) ([1]; grown in I+ media, shocked in 10% Ethanol): 0.084 h⁻¹
Specific Death Rates in 2% Glucose (d) ([1]; grown in I+ media, shocked in 15% Ethanol): 2.61 h⁻¹
Specific Death Rates in 2% Glucose (d) ([1]; grown in I+ media, shocked in 15% Ethanol, listed as ethanol): 2.61 h⁻¹ and 3.14 h⁻¹
Specific Death Rates in 2% Glucose (d) ([1]; grown in I− media, shocked in 10% Ethanol): 0.049 h⁻¹
Specific Death Rates in 2% Glucose (d) ([1]; grown in I− media, shocked in 15% Ethanol): 3.14 h⁻¹
Specific Death Rates in 2% Glucose (d) ([1]; grown in I− media, shocked in 15% Ethanol, listed as ethanol): 3.14 h⁻¹ and 2.61 h⁻¹
specific death rate d ([1]; wild type, 10% ethanol, with or without inositol in growth media): less than 0.1 hr^−1
d after growth in −I media higher than after growth in +I ([1]; wild type, 15% ethanol): 20%
d of opi1 in 18% ethanol, lower than d of wild type in 15% ethanol ([2]; both grown in +I media): 38%
specific death rate d ([2]; opi1, 10% ethanol, with or without inositol in growth media): less than 0.1 hr^−1
increase of d after growth in −I media in comparison to +I media ([2]; opi1, 15% ethanol): 11%
Specific Death Rates in 2% Glucose (d) ([2]; opi1, grown in I+ media, shocked in 10% Ethanol): 0.036 h⁻¹
Specific Death Rates in 2% Glucose (d) ([2]; opi1, grown in I+ media, shocked in 15% Ethanol): 0.71 h⁻¹
Specific Death Rates in 2% Glucose (d) ([2]; opi1, grown in I+ media, shocked in 18% Ethanol): 1.61 h⁻¹
Specific Death Rates in 2% Glucose (d) ([2]; opi1, grown in I− media, shocked in 10% Ethanol): 0.006 h⁻¹
Specific Death Rates in 2% Glucose (d) ([2]; opi1, grown in I− media, shocked in 15% Ethanol): 0.79 h⁻¹
increase in μ value for opi1 over wild type ([3]; +I media, 2% glucose): 5%
increase in μ value for opi1 over wild type ([3]; +I media, 12% glucose): 16%
increase in μ value for opi1 over wild type ([3]; −I media, 2% glucose): 57%
increase in μ value for opi1 over wild type ([3]; −I media, 12% glucose): 33%
Specific Growth Rates in 2% Glucose (μ) ([3]; opi1, I+ media, 2% glucose): 0.118 ± 0.012 h⁻¹
Specific Growth Rates in 12% Glucose (μ) ([3]; opi1, I+ media, 12% glucose): 0.127 ± 0.007 h⁻¹
Specific Growth Rates in 2% Glucose (μ) ([3]; opi1, I− media, 2% glucose): 0.102 ± 0.011 h⁻¹
Specific Growth Rates in 12% Glucose (μ) ([3]; opi1, I− media, 12% glucose): 0.076 ± 0.010 h⁻¹
Specific Growth Rates in 2% Glucose (μ) ([4]; I+ media): 0.111 ± 0.007 h⁻¹
Specific Growth Rates in 12% Glucose (μ) ([4]; I+ media): 0.109 ± 0.010 h⁻¹
Specific Growth Rates in 2% Glucose (μ) ([4]; I− media): 0.065 ± 0.004 h⁻¹
Specific Growth Rates in 12% Glucose (μ) ([4]; I− media): 0.057 ± 0.007 h⁻¹

Source: patent US20100317078A1, “METHODS TO IMPROVE ALCOHOL TOLERANCE OF MICROORGANISMS” (Cornell Research Foundation Inc, priority 2007, published 2010)
